According to article PMC8080777, “Discovery, optimization, and evaluation of non-bile acid FXR/TGR5 dual agonists” (Scientific Reports, 2021):
“Also recorded” adds a separate entry of the source.

Columns and labels:
TGR5 = target: T1, TGR5 (Homo sapiens, UniProt Q8TDU6); test: TGR5 cAMP assay in CHO cells transfected with TGR5 (cAMP Hunter eXpress, Discover X); assay type: cell-based
T1 construct: host or cells: CHO cells
T1 sequence (Q8TDU6 1-330): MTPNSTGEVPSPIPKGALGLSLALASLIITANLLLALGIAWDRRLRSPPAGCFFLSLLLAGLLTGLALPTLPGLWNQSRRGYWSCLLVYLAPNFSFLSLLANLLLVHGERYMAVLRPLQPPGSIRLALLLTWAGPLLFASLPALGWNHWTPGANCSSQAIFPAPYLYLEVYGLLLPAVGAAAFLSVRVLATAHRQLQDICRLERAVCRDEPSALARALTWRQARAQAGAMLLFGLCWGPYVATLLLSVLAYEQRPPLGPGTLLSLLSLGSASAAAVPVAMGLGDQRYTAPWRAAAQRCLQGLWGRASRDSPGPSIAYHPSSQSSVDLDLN
Procedure: TGR5 agonist activity was evaluated by transfecting CHO cells with TGR5 using the Discover X expression kit (cAMP Hunter eXpress GPCR Assay, Discover X Fremont, CA). Cells were incubated with test compounds for 0.5 h, and intracellular cAMP levels were measured using the multi-mode microplate reader.
(§1) TGR5 agonist activity was evaluated by transfecting CHO cells with TGR5 using the Discover X expression kit (cAMP Hunter eXpress Assay Kit, Discover X Fremont, CA, USA). Cells were incubated with the test compounds for 0.5 h, and intracellular cAMP levels were measured using Multi-Mode Microplate Reader (FlexStation 3, Molecular Devices Inc., San Jose, CA, USA).
Each compound was tested at concentrations of 10, 1, or 0.1 µM in duplicate (n = 2), with the average value shown.
S4. In vitro, in vivo assay, and selectvity. […]
In vitro TGR5 agonist assay protocol
as §1
Each compound was tested at concentrations of 10, 1, or 0.1 µM in duplicate (n=2), with the […]
parameter logistic equation, Y = min + (max - min)/(1 + 10^(n * (log10(EC50) - log10(conc)))), in […]

FXR = target: T2, FXR (Homo sapiens, UniProt Q96RI1); test: CHO cell-based FXR luciferase reporter assay (Indigo Biosciences); details: for FXR Efficacy (%) (1 µM) / FXR Efficacy (%) (10 µM): % vs OCA 1 µM as 100%
T2 construct: host or cells: CHO cells
T2 sequence (Q96RI1 1-486): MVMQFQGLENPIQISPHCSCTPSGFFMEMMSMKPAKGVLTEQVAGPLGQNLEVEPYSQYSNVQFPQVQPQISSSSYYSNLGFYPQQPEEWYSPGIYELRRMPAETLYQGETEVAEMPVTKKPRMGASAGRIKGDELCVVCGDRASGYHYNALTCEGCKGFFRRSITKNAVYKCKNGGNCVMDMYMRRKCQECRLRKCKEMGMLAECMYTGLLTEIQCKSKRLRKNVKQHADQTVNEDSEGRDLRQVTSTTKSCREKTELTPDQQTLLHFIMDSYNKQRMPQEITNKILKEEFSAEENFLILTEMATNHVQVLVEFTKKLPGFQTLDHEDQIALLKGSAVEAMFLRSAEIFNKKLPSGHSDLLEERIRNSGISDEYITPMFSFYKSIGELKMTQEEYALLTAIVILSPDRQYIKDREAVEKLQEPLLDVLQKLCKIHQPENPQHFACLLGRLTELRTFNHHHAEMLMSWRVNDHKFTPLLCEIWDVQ
Procedure: To evaluate direct agonist activities against FXR, test compounds were evaluated using a CHO cell-based FXR assay by Indigo Biosciences (State College, PA), in which cells were transfected with an FXR luciferase reporter system.
To directly evaluate the in vitro agonist activity towards FXR, test compounds were evaluated in CHO cells transfected with FXR responsive luciferase reporter (Nuclear Receptor & In Vitro Toxicology Solutions, Indigo Biosciences, State College, PA, USA). […] Each compound was tested in duplicate, and the average value was reported[35],[36].
(§2) The cell recovery medium (CRM, Human Farnesoid X Receptor (NR1H4, FXR reporter assay system, Indigo Biosciences, State College, PA, USA) and compound screening medium (CSM, Human Farnesoid X Receptor (NR1H4, FXR reporter assay system, Indigo Biosciences, State College, PA, USA) were removed from the freezer and thawed in a water bath at 37 °C. Test compounds were dissolved in dimethyl sulfoxide (DMSO, FUJIFILM Wako Pure Chemical Corporation, Osaka city, Osaka, Japan), and the treatment medium was prepared and diluted with CSM to achieve a final concentration of 0.2% total DMSO. The reporter cells were thawed by transferring 3.3 mL CRM at 37 °C into tubes of frozen cells. The tube containing reporter cells was recapped, and it was immediately place in a 37 °C water bath for 5 min. The reporter cells were gently inverted several times, and 100 µL cell suspension was dispensed into each well. One hundred microliters of treatment media was added into wells. Subsequently, the assay plate was kept at 37 °C, and it was incubated with 5% CO2 for 22 h. To prepare luciferase detection reagent (LDR), the detection substrate was gently mixed with detection buffer, media contents were removed from each well, and 100 µL LDR was added to each well of the assay plate. The assay plate was allowed to rest at room temperature for 5 min, and luminescence was quantified using the Multi-Mode Microplate Reader (FlexStation 3, Molecular Devices Inc., San Jose, CA, USA)[36].
S4. In vitro, in vivo assay, and selectvity.
To directly evaluate the in vitro agonist activity towards FXR, test compounds were evaluated in CHO cells transfected with FXR responsive luciferase reporter (Nuclear Receptor & In Vitro Toxicology Solutions, Indigo Biosciences, State College, PA, USA). Cells were incubated with […]
(FlexStation 3, Molecular Devices Inc., San Jose, CA, USA). Efficacies are reported relative to […]
reporter on of 1 µM. Each compound was tested in duplicate, and the average value was […]
as §2, with “sulfoxide (DMSO ,” for “sulfoxide (DMSO,”, “Osaka, Jap an),” for “Osaka, Japan),”, “a 37°C” for “a 37 °C”, “5% CO 2” for “5% CO2”, “using […]” for “using the Multi-Mode Microplate Reader (FlexStation 3, Molecular Devices Inc., San Jose, CA, USA)[36].”

| TGR5 agonist activity (in words) (TGR5) | TGR5 Efficacy (%) (10 µM) (TGR5; % vs INT-767 10 µM as 100%) | FXR Efficacy (%) (1 µM) (FXR) | FXR Efficacy (%) (10 µM) (FXR) | SMILES | FXR agonist activity (in words) (FXR) | TGR5 Efficacy (%) (0.1 µM) (TGR5; 0.1 µM, % vs INT-767 10 µM as 100%) | TGR5 Efficacy (%) (1 µM) (TGR5; 1 µM, % vs INT-767 10 µM as 100%) |
| --- | --- | --- | --- | --- | --- | --- | --- |
| inactive against TGR5 | -3.1 | 24.6 | 100.2 | COC(=O)/C=C/c1cccc(N(Cc2ccc(-c3ccc(N(C)C)cc3)cc2)C(=O)c2ccncc2C)c1 [Compound 13a] | strong FXR agonist activity with full efficacy |  |  |
| TGR5 full agonist | 118.6 | 17.7 |  | Cc1cnccc1C(=O)N(Cc1ccc(-c2ccccc2)cc1)c1cc(Cl)cc(Cl)c1 [Compound 13ah] |  |  |  |
| inactive against TGR5 | -2.8 | 16.7 | 86.9 | COC(=O)/C=C/c1cccc(N(Cc2ccc(-c3ccc(N(C)C)cc3)cc2)C(=O)c2ccncc2)c1 [Compound 13b] |  |  |  |
|  | 1.7 |  | 68.1 | COC(=O)/C=C/c1cccc(N(Cc2ccc(-c3ccc(N(C)C)cc3)cc2)C(=O)c2cccnc2)c1 [Compound 13c] |  |  |  |
|  | 0.0 | 24.5 | 88.9 | COC(=O)/C=C/c1cccc(N(Cc2ccc(-c3ccc(N(C)C)cc3)cc2)C(=O)c2ccccc2)c1 [Compound 13d] |  |  |  |
| strong TGR5 agonist activity | 87.5 | 2.0 |  | Cc1cnccc1C(=O)N(Cc1ccc(-c2ccc(N(C)C)cc2)cc1)c1ccc(F)cc1C [Compound 13e] |  |  |  |
|  | 32.0 | 0.5 |  | Cc1cc(F)ccc1N(Cc1ccc(-c2ccc(N(C)C)cc2)cc1)C(=O)c1ccncc1 [Compound 13f] |  |  |  |
|  | 0.8 | 1.2 |  | Cc1cc(F)ccc1N(Cc1ccc(-c2ccc(N(C)C)cc2)cc1)C(=O)c1cccnc1 [Compound 13g] |  |  |  |
|  | 0.2 | 25.3 |  | COC(=O)/C=C/c1ccc(C)c(N(Cc2ccc(-c3ccc(N(C)C)cc3)cc2)C(=O)c2ccncc2C)c1 [Compound 13h] |  |  |  |
| weak FXR/TGR5 dual agonist activity | 47.2 | 32.1 |  | COC(=O)/C=C/c1cccc(N(Cc2ccc(-c3ccc(N(C)C)cc3)cc2)C(=O)c2ccncc2C)c1C [Compound 13i] | weak FXR/TGR5 dual agonist activity |  |  |
| dual potencies against both FXR and TGR5 | 47.4 | 75.9 |  | Cc1cnccc1C(=O)N(Cc1ccc(-c2ccc(N(C)C)cc2)cc1)c1cc(Cl)cc(Br)c1 [Compound 13k] | dual potencies against both FXR and TGR5 |  |  |
|  | 48.5 | 37.6 |  | Cc1cc(C)cc(N(Cc2ccc(-c3ccc(N(C)C)cc3)cc2)C(=O)c2ccncc2C)c1 [Compound 13l] |  |  |  |
|  | 6.7 | 72.5 |  | COC(=O)/C=C/c1cc(Cl)cc(N(Cc2ccc(-c3ccc(N(C)C)cc3)cc2)C(=O)c2ccncc2C)c1 [Compound 13m] |  |  |  |

| SMILES | TGR5 agonist activity (in words) (TGR5) | TGR5 Efficacy (%) (10 µM) (TGR5; % vs INT-767 10 µM as 100%) | FXR Efficacy (%) (1 µM) (FXR) | FXR Efficacy (%) (10 µM) (FXR) | FXR agonist activity (in words) (FXR) | TGR5 Efficacy (%) (0.1 µM) (TGR5; 0.1 µM, % vs INT-767 10 µM as 100%) | TGR5 Efficacy (%) (1 µM) (TGR5; 1 µM, % vs INT-767 10 µM as 100%) |
| --- | --- | --- | --- | --- | --- | --- | --- |
| COc1cnccc1C(=O)N(Cc1ccc(-c2ccc(N(C)C)cc2)cc1)c1cc(Cl)cc(Cl)c1 [Compound 13aa] | weak dual agonist activity | 21.5 | 68.6 |  | weak dual agonist activity |  |  |
| CN(C)c1ccc(-c2ccc(CN(C(=O)c3ccnnc3)c3cc(Cl)cc(Cl)c3)cc2)cc1 [Compound 13ab] | did not have any activity against either FXR or TGR5 | -12 | 0.5 |  | did not have any activity against either FXR or TGR5 |  |  |
| CN(C)c1ccc(-c2ccc(CN(C(=O)c3ccccc3Cl)c3cc(Cl)cc(Cl)c3)cc2)cc1 [Compound 13ac] |  | 0.2 | 84.3 |  | strong FXR activities |  |  |
| CN(C)c1ccc(-c2ccc(CN(C(=O)C3CCC(O)CC3)c3cc(Cl)cc(Cl)c3)cc2)cc1 (stereo not drawn) [Compound 13ae] |  | -1.5 | 101.4 |  | strong FXR activities |  |  |
| CN(C)c1ccc(-c2ccc(CN(C(=O)c3ccc(O)cc3Cl)c3cc(Cl)cc(Cl)c3)cc2)cc1 [Compound 13af] |  | -0.2 | 108.2 |  | strong FXR activities |  |  |
| COc1ccc(C(=O)N(Cc2ccc(-c3ccc(N(C)C)cc3)cc2)c2cc(Cl)cc(Cl)c2)c(Cl)c1 [Compound 13ag] | significantly low potency against TGR5 | 1.1 | 136.5 |  | strong FXR activities |  |  |
| Cc1cnccc1C(=O)N(Cc1ccc(-c2ccc(N(C)C)cc2)cc1)c1cc(Cl)cc(Cl)c1 [Compound 13j] | potent FXR/TGR5 dual agonist activity; also recorded: dual potencies against both FXR and TGR5 | 59.7 | 62.1 |  | potent FXR/TGR5 dual agonist activity; also recorded: dual potencies against both FXR and TGR5 |  |  |
| CCC1C(O)C2C3CCC(C(C)CCOS(=O)(=O)O)C3(C)CCC2C2(C)CCC(O)CC12 (stereo not drawn) [INT-767, reference compound] |  | 100 |  |  |  | 1.7 | 25.5 |
